Patent publication US20250197403A1, “HETEROARYL COMPOUNDS FOR TREATMENT OF COMPLEMENT FACTOR D MEDIATED DISORDERS” (Achillion Pharmaceuticals, Inc., priority 2020, published 2025)

target: Human Factor D (Homo sapiens (Human), UniProt P00746); assay: Human Factor D Assay; type: biochemical; conditions: Human Factor D 80 nM, substrate Z-L-Lys-SBzl, assay according to Example 3
Method: The assay according to Example 3 was used to determine the IC50's of the compounds. Other standard factor D inhibition assays are also available.
Human Factor D (purified from human serum, Complement Technology, Inc.) at 80 nM final concentration is incubated with test compound at various concentrations for 5 min at room temperature in 50 mM Tris, 1M NaCl, pH 7.5. A synthetic substrate Z-L-Lys-SBzl and DTNB (Ellman's reagent) are added to final concentrations of 100 μM each. Absorbance at 405 nm (A405) is recorded at 30 second intervals for 30 min using a microplate spectrophotometer. IC50 values are calculated by nonlinear regression of complement Factor D reaction rates as a function of test compound concentration.

Chain of Human Factor D (P00746 26-253): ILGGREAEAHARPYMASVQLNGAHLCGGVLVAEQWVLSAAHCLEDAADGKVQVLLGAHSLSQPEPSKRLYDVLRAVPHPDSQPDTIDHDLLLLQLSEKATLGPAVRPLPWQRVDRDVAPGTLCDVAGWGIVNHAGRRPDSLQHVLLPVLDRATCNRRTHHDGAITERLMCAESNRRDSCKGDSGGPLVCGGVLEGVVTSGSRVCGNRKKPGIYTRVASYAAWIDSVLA

Row | SMILES | IC50
1 | CC(=O)c1cn(CC(=O)N2[C@H](C(=O)N[C@H](C)C(F)=C(C)C)C[C@@]3(C)C[C@@H]23)c2c(C)cc(-c3cnc(C)nc3)cc12 [Compound 28, (1R,3S,5R)-2-(2-(3-acetyl-7-methyl-5-(2-methylpyr-imidin-5-yl)-1H-indol-1-yl)acetyl)-N-((R)-3-fluoro-4-methylpent-3-en-2-yl)-5-methyl-2-azabicyclo[3.1.0] hexane-3-carboxamide] | < 1000 nM
2 | CC(=O)c1cn(CC(=O)N2[C@H](C(=O)Nc3nc(C(F)(F)F)cc(F)c3C)C[C@@]3(C)C[C@@H]23)c2c(C)cc(-c3cnc4cc(C)nn4c3)cc12 [Compound 12, (1R,3S,5R)-2-(2-(3-acetyl-7-methyl-5-(2-methylpyr-azolo[1,5-a]pyrimidin-6-yl)-1H-indol-1-yl)acetyl)-N-(4-fluoro-3-methyl-6-(trifluoromethyl)pyridin-2-yl)-5-methyl-2-azabicyclo [3.1.0]hexane-3-carbox-amide] | < 1000 nM
3 | CC(=O)c1cn(CC(=O)N2[C@H](C(=O)N[C@@H](C)C(F)=C(C)C)C[C@@]3(C)C[C@@H]23)c2c(C)cc(-c3cnc(C)nc3)cc12 [Compound 31, (1R,3S,5R)-2-(2-(3-acetyl-7-methyl-5-(2-methylpyr-imidin-5-yl)-1H-indol-1-yl)acetyl)-N-((S)-3-fluoro-4-methylpent-3-en-2-yl)-5-methyl-2-azabicyclo[3.1.0] hexane-3-carboxamide] | < 1000 nM
4 | COCc1ccc(C(F)(F)F)nc1NC(=O)[C@@H]1C[C@@]2(C)C[C@H]2N1C(=O)Cn1cc(C(C)=O)c2cc(-c3cnc(C)nc3)cc(C)c21 [Compound 52, (1R,3S,5R)-2-(2-(3-acetyl-7-methyl-5-(2-methylpyr-imidin-5-yl)-1H-indol-1-yl)acetyl)-N-(3-(methoxy-methyl)-6-(trifluorometh-yl)pyridin-2-yl)-5-methyl-2-azabicyclo[3.1.0]hexane-3-carboxamide] | < 1000 nM
5 | CC(=O)c1cn(CC(=O)N2[C@H](C(=O)Nc3nc(Br)cc(F)c3C)C[C@@]3(C)C[C@@H]23)c2c(C)cc(-c3cnc(C)nc3)cc12 [Compound 15, (1R,3S,5R)-2-(2-(3-acetyl-7-methyl-5-(2-methylpyr-imidin-5-yl)-1H-indol-1-yl)acetyl)-N-(6-bromo-4-fluoro-3-methylpyridin-2-yl)-5-methyl-2-azabicyclo [3.1.0]hexane-3-carbox-amide] | < 1000 nM
6 | CC(=O)c1cn(CC(=O)N2[C@H](C(=O)N[C@H](C)C(F)=C(C)C)C[C@@]3(C)C[C@@H]23)c2c(C)nc(-c3cnc4cc(C)nn4c3)cc12 [Compound 29, (1R,3S,5R)-2-(2-(3-acetyl-7-methyl-5-(2-methylpyr-azolo[1,5-a]pyrimidin-6-yl)-1H-pyrrolo[2,3-c]pyr-idin-1-yl)acetyl)-N-((R)-3-fluoro-4-methylpent-3-en-2-yl)-5-methyl-2-azabi-cyclo[3.1.0]hexane-3-car-boxamide] | < 1000 nM
7 | CC(=O)c1cn(CC(=O)N2C[C@@](F)(CF)C[C@H]2C(=O)Nc2nc(C(F)(F)F)ccc2C)c2c(C)cc(-c3ccc4nc(C)nn4c3)cc12 [Compound 11, (2S,4R)-1-(2-(3-acetyl-7-methyl-5-(2-methyl-[1,2,4]triazolo[1,5-a]pyr-idin-6-yl)-1H-indol-1-yl)-acetyl)-4-fluoro-4-(fluoro-methyl)-N-(3-methyl-6-(trifluoromethyl)pyridin-2-yl)pyrrolidine-2-carbox-amide] | < 1000 nM
8 | CC(=O)c1cn(CC(=O)N2[C@H](C(=O)Nc3nc(C(F)(F)F)ccc3Cl)C[C@@]3(C)C[C@@H]23)c2c(C)cc(-c3cnc4cc(C)nn4c3)cc12 [Compound 51, (1R,3S,5R)-2-(2-(3-acetyl-7-methyl-5-(2-methylpyr-azolo[1,5-a]pyrimidin-6-yl)-1H-indol-1-yl)acetyl)-N-(3-chloro-6-(trifluoro-methyl)pyridin-2-yl)-5-methyl-2-azabicyclo[3.1.0] hexane-3-carboxamide] | < 1000 nM
